Test results taken from US20250270206A1, “COMPOSITIONS AND METHODS FOR INHIBITION OF RAS” (TheRas, Inc., priority 2022, published 2025).

Legend:
pERK in NCI-H358 cells = assay: Cell-based pERK HTRF assay; conditions: Homo sapiens, 0.5 h, 30 min incubation
Procedure, shortened: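 KRAS G12C NCI-H358 cells in RPMI/10% FBS treated 30 min with compound, 9-point 3-fold series from 75 μM final top, 0.25% DMSO. Lysates read for phospho-ERK by HTRF (d2/Eu cryptate antibodies, 615 nm emission) after 4–24 h room-temperature incubation.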

[1] = molecular target: T1, GDP-loaded KRAS4b (amino acids 1-169) G12C/C118S (Homo sapiens, UniProt P01116, C118S/G12C); assay: MALDI-TOF MS covalent Cys12 modification, GDP-loaded KRAS G12C; format: binding; conditions: 15 minutes reaction time, 1 μM protein, 1:2.5 protein to compound ratio
T1 construct: KRAS4b (amino acids 1-169) G12C/C118S protein; made in house
Procedure, shortened: (§1)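 1 μM KRAS4b(1-169) G12C/C118S loaded with GTP, GppNHp or GDP in 20 mM HEPES, 150 mM NaCl, 1 mM MgCl2, pH 7.3, treated at a 1:2.5 protein:compound ratio in the dark at room temperature. Linear-mode MALDI-TOF; percent modification = adduct peak height over total protein peak heights, at 15 min.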

[2] = molecular target: T2, GTP-loaded KRAS4b (amino acids 1-169) G12C/C118S (Homo sapiens, UniProt P01116, C118S/G12C); assay: MALDI-TOF MS covalent Cys12 modification, GTP-loaded KRAS G12C; format: binding; conditions: 15 minutes reaction time, 1 μM protein, 1:2.5 protein to compound ratio
T2 construct: KRAS4b (amino acids 1-169) G12C/C118S protein; made in house
Procedure, shortened: as §1

[3] = molecular target: T3, GppNHp-loaded KRAS4b (amino acids 1-169) G12C/C118S (Homo sapiens, UniProt P01116, C118S/G12C); assay: MALDI-TOF MS covalent Cys12 modification, GppNHp-loaded KRAS G12C; format: binding; conditions: 15 minutes reaction time, 1 μM protein, 1:2.5 protein to compound ratio
T3 construct: KRAS4b (amino acids 1-169) G12C/C118S protein; made in house
Procedure, shortened: as §1

[4] = molecular target: T4, Avi-KRAS G12C (1-169) GppNHp/RAF1 RBD-3×FLAG (52-151) (Homo sapiens, UniProt P01116, G12C); assay: KRAS G12C-effector (RAF1 RBD) protein:protein interaction HTRF disruption assay; format: biochemical; conditions: PPI HTRF
T4 construct: Avi-KRAS G12C (1-169) GppNHp
Procedure, shortened: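 50 nM Avi-KRAS G12C (1-169) loaded with GppNHp, then 75 nM RAF1 RBD-3×FLAG, then HTRF detection mix, each step 1 h at room temperature. Buffer was 50 mM Tris pH 7.5, 100 mM NaCl, 5 mM MgCl2, 0.1% BSA, 0.01% Tween 20, 10% DMSO. Compounds titrated 30-0.02 μM (3× series). Read at 615 nm emission, reported as % activity vs DMSO (100%).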

IC50 (pERK in NCI-H358 cells)	GDP-KRAS G12C percent of modification [1]	GTP-KRAS G12C percent of modification [2]	GppNHp-KRAS G12C percent of modification [3]	IC50 [4]	Structure (SMILES)
100 to 1000 nM	A (percent of modification ≥70%)	A (percent of modification ≥70%)	A (percent of modification ≥70%)	≤ 500 nM	C=CC(=O)N1CCC(N(C)c2nc(OC[C@@H]3C[C@@H](OC)CN3C)nc3c(F)c(-c4ccc(F)c5sc(N)c(C#N)c45)ncc23)[C@H]1COC (stereo partly shown) [Compound 20]
100 to 1000 nM	A (percent of modification ≥70%)	A (percent of modification ≥70%)	A (percent of modification ≥70%)	≤ 500 nM	C=CC(=O)N1CCC(N(C)c2nc(OC[C@@H]3C[C@@H](F)CN3C)nc3c(F)c(-c4ccc(F)c5sc(N)c(C#N)c45)ncc23)[C@H]1C (stereo partly shown) [Compound 23]
100 to 1000 nM	A (percent of modification ≥70%)	A (percent of modification ≥70%)	A (percent of modification ≥70%)	≤ 500 nM	C=CC(=O)N1CCC(N(CC)c2nc(OC[C@@]34CCCN3C[C@H](F)C4)nc3c(F)c(-c4ccc(F)c5sc(N)c(C#N)c45)ncc23)[C@H]1COC (stereo partly shown) [Compound 25]
100 to 1000 nM	A (percent of modification ≥70%)	A (percent of modification ≥70%)	A (percent of modification ≥70%)	≤ 500 nM	C=CC(=O)N1CCC(N(C)c2nc(OC[C@@H]3C[C@@H](F)CN3C)nc3c(F)c(-c4ccc(F)c5sc(N)c(C#N)c45)ncc23)[C@H]1COC (stereo partly shown) [Compound 27]
100 to 1000 nM	A (percent of modification ≥70%)	A (percent of modification ≥70%)	A (percent of modification ≥70%)	≤ 500 nM	C=CC(=O)N1CCC(N(C)c2nc(OC[C@@H]3C[C@@H](OC)CN3C)nc3c(F)c(-c4ccc(F)c5sc(N)c(C#N)c45)ncc23)[C@H]1C (stereo partly shown) [Compound 28]
100 to 1000 nM	A (percent of modification ≥70%)	A (percent of modification ≥70%)	A (percent of modification ≥70%)	≤ 500 nM	C=CC(=O)N1CCC(N(CC)c2nc(OC[C@@]34CCCN3C[C@H](F)C4)nc3c(Cl)c(-c4ccc(F)c5sc(N)c(C#N)c45)ncc23)[C@H]1COC (stereo partly shown) [Compound 30]
≤ 100 nM	A (percent of modification ≥70%)	A (percent of modification ≥70%)	A (percent of modification ≥70%)	≤ 500 nM	C=CC(=O)N1CCC(N(CC)c2nc(OC[C@@]34CCCN3C[C@H](F)C4)nc3c(Cl)c(-c4ccc(F)c5sc(N)c(C#N)c45)ncc23)[C@H]1C (stereo partly shown) [Compound 37]
≤ 100 nM	A (percent of modification ≥70%)	A (percent of modification ≥70%)	A (percent of modification ≥70%)	≤ 500 nM	C=CC(=O)N1CCC(N(C)c2nc(OC[C@@]34CCCN3C[C@H](F)C4)nc3c(Cl)c(-c4ccc(F)c5sc(N)c(C#N)c45)ncc23)[C@H]1CC (stereo partly shown) [Compound 38]
100 to 1000 nM	A (percent of modification ≥70%)	A (percent of modification ≥70%)	A (percent of modification ≥70%)	≤ 500 nM	C=CC(=O)N1CCC(N(C)c2nc(OC[C@@]34CCCN3C[C@H](F)C4)nc3c(F)c(-c4ccc(F)c5sc(N)c(C#N)c45)ncc23)[C@H]1CC (stereo partly shown) [Compound 39]
100 to 1000 nM	A (percent of modification ≥70%)	A (percent of modification ≥70%)	A (percent of modification ≥70%)	≤ 500 nM	C=CC(=O)N1CCC(N(CC)c2nc(OC[C@@]34CCCN3C[C@H](F)C4)nc3c(F)c(-c4ccc(F)c5sc(N)c(C#N)c45)ncc23)[C@H]1CC (stereo partly shown) [Compound 40]
100 to 1000 nM	A (percent of modification ≥70%)	A (percent of modification ≥70%)	A (percent of modification ≥70%)	≤ 500 nM	C=CC(=O)N1CCC(N(CC)c2nc(OC[C@@]34CCCN3C[C@H](F)C4)nc3c(Cl)c(-c4ccc(F)c5sc(N)c(C#N)c45)ncc23)[C@H]1CC (stereo partly shown) [Compound 41]
100 to 1000 nM	A (percent of modification ≥70%)	A (percent of modification ≥70%)	A (percent of modification ≥70%)	≤ 500 nM	C=CC(=O)N1CC[C@@H](N(C)c2nc(OC[C@@]34CCCN3C[C@H](F)C4)nc3c(F)c(-c4ccc(F)c5sc(N)c(C#N)c45)ncc23)[C@H]1CC [Compound 42]
100 to 1000 nM	A (percent of modification ≥70%)	A (percent of modification ≥70%)	A (percent of modification ≥70%)	≤ 500 nM	C=CC(=O)N1CC[C@@H](N(CC)c2nc(OC[C@@]34CCCN3C[C@H](F)C4)nc3c(Cl)c(-c4ccc(F)c5sc(N)c(C#N)c45)ncc23)[C@H]1CC [Compound 43]
100 to 1000 nM	A (percent of modification ≥70%)	D (percent of modification <10%)	C (10%≤percent of modification <50%)	500 to 5000 nM	C=CC(=O)N1CC[C@@H](N(C)c2nc(OC[C@@]34CCCN3C[C@H](F)C4)nc3c(F)c(-c4ccc(F)c5sc(N)c(C#N)c45)ncc23)[C@@H]1CC [Compound 44]
100 to 1000 nM	A (percent of modification ≥70%)	D (percent of modification <10%)	C (10%≤percent of modification <50%)	500 to 5000 nM	C=CC(=O)N1CC[C@@H](N(C)c2nc(OC[C@@]34CCCN3C[C@H](F)C4)nc3c(Cl)c(-c4ccc(F)c5sc(N)c(C#N)c45)ncc23)[C@@H]1CC [Compound 45]
100 to 1000 nM	A (percent of modification ≥70%)	A (percent of modification ≥70%)	A (percent of modification ≥70%)	≤ 500 nM	C=CC(=O)N1CC[C@@H](N(CC)c2nc(OC[C@@]34CCCN3C[C@H](F)C4)nc3c(F)c(-c4ccc(F)c5sc(N)c(C#N)c45)ncc23)[C@H]1CC [Compound 46]
≤ 100 nM	A (percent of modification ≥70%)	A (percent of modification ≥70%)	A (percent of modification ≥70%)	≤ 500 nM	C=CC(=O)N1CC[C@@H](N(C)c2nc(OC[C@@]34CCCN3C[C@H](F)C4)nc3c(Cl)c(-c4ccc(F)c5sc(N)c(C#N)c45)ncc23)[C@H]1CC [Compound 47]
100 to 1000 nM	A (percent of modification ≥70%)	D (percent of modification <10%)	D (percent of modification <10%)	500 to 5000 nM	C=CC(=O)N1CC[C@@H](N(CC)c2nc(OC[C@@]34CCCN3C[C@H](F)C4)nc3c(F)c(-c4ccc(F)c5sc(N)c(C#N)c45)ncc23)[C@@H]1CC [Compound 48]
100 to 1000 nM	A (percent of modification ≥70%)	D (percent of modification <10%)	D (percent of modification <10%)	500 to 5000 nM	C=CC(=O)N1CC[C@@H](N(CC)c2nc(OC[C@@]34CCCN3C[C@H](F)C4)nc3c(Cl)c(-c4ccc(F)c5sc(N)c(C#N)c45)ncc23)[C@@H]1CC [Compound 49]
≤ 100 nM	A (percent of modification ≥70%)	C (10%≤percent of modification <50%)	A (percent of modification ≥70%)	≤ 500 nM	C=CC(=O)N1CC[C@@H](N(CC)c2nc(OC[C@@]34CCCN3C[C@H](F)C4)nc3c(F)c(-c4ccc(F)c5sc(N)c(C#N)c45)ncc23)[C@@H]1C [Compound 50]
